{"source": "patent US20090232917A1", "about": "“COMPOSITION FOR RELIEVING SUBJECTIVE SYMPTOMS OF FATIGUE” (Kyowa Hakko Kogyo Co., Ltd., priority 2005, published 2009)", "test_system": "normal subjects (subjective symptoms of fatigue)", "experiment": "Test Example 1: subjective symptoms of fatigue by visual analogue scale (VAS) method, tablets for 3 weeks", "assay_type": "in vivo, human", "settings": "6 tablets of Example 1 per day for 3 weeks", "experimental": "A test was carried out as follows. […] Evaluation was carried out in terms of the subjective symptoms of fatigue in the test subjects at the start and completion of the test using a visual analogue scale (VAS) method.\nSpecifically, each end of the segment has a criterion of expression. Referring to FIG. 1 or 2, each subject was allowed to mark somewhere in the segment, corresponding to each term of the questionnaires. Among the subjective symptoms of fatigue, questionnaires 1 to 8 represent indices related to “drowsiness and dullness”, and questionnaires 9 to 15 represent indices related to “difficulty in concentration”.\nThe distance (mm) from the left end of the segment to the marked point was measured and the difference between before and after the test was calculated. The difference by the value before the test was shown in the percentage calculated; and the average value and standard deviation for each group were calculated. […] Further, it was confirmed that there was no difference between two groups at the start of the test.\nFurther, the test was carried out under a random assignment and the comparison between the double blind parallel groups was carried out."}
{"smiles": "Cl.NCCC[C@H](N)C(=O)O", "note": "[ornithine, ornithine hydrochloride]", "values": [{"measurement": "relieving effect on subjective symptoms of fatigue, all terms (drowsiness and dullness; difficulty in concentration)", "setting": "VAS questionnaires 1 to 15, versus placebo group, FIG. 3 and 4", "result": "relieving effect"}, {"measurement": "\"having difficulty thinking\": difference between the placebo group and the ornithine group", "setting": "VAS, unpaired t-test", "result": "significant difference"}]}
